Experimental data taken from patent US20080014186A1, “Hla-A24 or Hla-A2 Binding Peptides of Parathyroid Hormone-Related Protein” (GREEN PEPTIDE CO., LTD., priority 2004, published 2008).

Tests used:
[1] = system: PBMCs of HLA-A2^+ healthy donors and prostate cancer patients; assay: Assay for peptide-specific CTLs in PBMCs (IFN-γ ELISA, peptide-pulsed T2 cells); type: cell-based, human; conditions: for INF-γ production: T2 cells
[2] = system: IgG in plasma of HLA-A2^+ healthy donors and prostate cancer patients; assay: Peptide-specific IgG in plasma by ELISA (HLA-A2-binding PTHrP peptides); set-up: species or system human; conditions: for IgG reactive to the peptide in plasma (difference of OD): 1:100-diluted plasma
Description: Peptide-specific IgG levels in the plasma were measured by ELISA, as previously reported. In brief, peptide (20 μg/well)-immobilized plates were blocked with Block Ace (Yukijirushi, Tokyo, Japan) and washed with 0.05% Tween20-PBS, after which 100 μl/well of plasma sample diluted with 0.05% Tween20-Block Ace was added to the plate. After 2 hours incubation at 37° C., the plates were washed and further incubated for 2 hours with a 1:1000-diluted rabbit anti-human IgG (γ-chain-specific) (DAKO, Glostrup, Denmark). The plates were washed, and then 100 μl of 1:100-diluted goat anti-rabbit IgG-conjugated horseradish peroxidase (EnVision, DAKO) was added to each well, and the plates were then incubated at room temperature for 40 min. After the plates were washed once, 100 μl/well of tetramethyl benzidine substrate solution (KPL, Guildford, UK) was added, and the reaction was stopped by the addition of 1 M phosphoric acid. The values are shown as optical density (OD) units/ml, and responses to the HIV peptide were subtracted. IgG reactive to a corresponding PTHrP peptide was judged to be positive when the difference of the OD in 1:100-diluted plasma exceeded 0.05. The results that IgG reactive to either the PTHrP102-111 or the […] peptide was detected in 8 of 10 healthy donors and in 7 of 10 prostate cancers are shown in Table 2 hereinafter.
In a similar way to Example 3, it was examined whether IgGs reactive to peptides of PTHrP 42-51 and PTHrP 59-67 could be detected in the plasma of 10 healthy donors and 10 cancer patients. The cut-off value at 1:100-diluted plasma was ODO.054.

Sequence: LLHDKGKSI [PTHrP 43-51]
- INF-γ production ([1]; HLA-A2^+ healthy donor #1 (A0201)): 17 pg/mL
- INF-γ production ([1]; HLA-A2^+ healthy donor #2 (A0201)): 21 pg/mL
- INF-γ production ([1]; HLA-A2^+ healthy donor #3 (A0201)): 23 pg/mL
- INF-γ production ([1]; HLA-A2^+ healthy donor #4 (A0201)): 27 pg/mL
- INF-γ production ([1]; HLA-A2^+ healthy donor #5 (A0206)): 0 pg/mL
- INF-γ production ([1]; HLA-A2^+ healthy donor #6 (A0206)): 0 pg/mL
- INF-γ production ([1]; HLA-A2^+ healthy donor #7 (A0206)): 0 pg/mL
- INF-γ production ([1]; HLA-A2^+ healthy donor #8 (A0206)): 0 pg/mL
- INF-γ production ([1]; HLA-A2^+ healthy donor #9 (A0206)): 0 pg/mL
- INF-γ production ([1]; HLA-A2^+ healthy donor #10 (A0207)): 0 pg/mL
- Total (donors with significant peptide-specific IFN-γ production / donors tested) ([1]; HLA-A2^+ healthy donors, p < 0.05): 0/10
- INF-γ production ([1]; HLA-A2^+ prostate cancer patient #1 (A0206)): 40 pg/mL
- INF-γ production ([1]; HLA-A2^+ prostate cancer patient #2 (A0210)): 56 pg/mL
- INF-γ production ([1]; HLA-A2^+ prostate cancer patient #3 (A0210)): 185 pg/mL
- INF-γ production ([1]; HLA-A2^+ prostate cancer patient #4 (A0206)): 0 pg/mL
- INF-γ production ([1]; HLA-A2^+ prostate cancer patient #5 (A0206)): 39 pg/mL
- INF-γ production ([1]; HLA-A2^+ prostate cancer patient #6 (A0207)): 51 pg/mL
- INF-γ production ([1]; HLA-A2^+ prostate cancer patient #7 (A0206)): 0 pg/mL
- INF-γ production ([1]; HLA-A2^+ prostate cancer patient #8 (A0206)): 23 pg/mL
- INF-γ production ([1]; HLA-A2^+ prostate cancer patient #9 (A0201)): 14 pg/mL
- INF-γ production ([1]; HLA-A2^+ prostate cancer patient #10 (A0201)): 0 pg/mL
- Total (patients with significant peptide-specific IFN-γ production / patients tested) ([1]; HLA-A2^+ prostate cancer patients, p < 0.05): 1/10
- IgG reactive to the peptide in plasma (difference of OD) ([2]; HLA-A2^+ healthy donor #1): — (IgG reactive to a corresponding peptide was judged to be positive when a difference of OD in a 1:100-diluted plasma was more than 0.054.)
- IgG reactive to the peptide in plasma (difference of OD) ([2]; HLA-A2^+ healthy donor #2): 0.102 OD
- IgG reactive to the peptide in plasma (difference of OD) ([2]; HLA-A2^+ healthy donor #3): — (IgG reactive to a corresponding peptide was judged to be positive when a difference of OD in a 1:100-diluted plasma was more than 0.054.)
- IgG reactive to the peptide in plasma (difference of OD) ([2]; HLA-A2^+ healthy donor #4): 0.155 OD
- IgG reactive to the peptide in plasma (difference of OD) ([2]; HLA-A2^+ healthy donor #5): — (IgG reactive to a corresponding peptide was judged to be positive when a difference of OD in a 1:100-diluted plasma was more than 0.054.)
- IgG reactive to the peptide in plasma (difference of OD) ([2]; HLA-A2^+ healthy donor #6): — (IgG reactive to a corresponding peptide was judged to be positive when a difference of OD in a 1:100-diluted plasma was more than 0.054.)
- IgG reactive to the peptide in plasma (difference of OD) ([2]; HLA-A2^+ healthy donor #7): — (IgG reactive to a corresponding peptide was judged to be positive when a difference of OD in a 1:100-diluted plasma was more than 0.054.)
- IgG reactive to the peptide in plasma (difference of OD) ([2]; HLA-A2^+ healthy donor #8): 0.121 OD
- IgG reactive to the peptide in plasma (difference of OD) ([2]; HLA-A2^+ healthy donor #9): — (IgG reactive to a corresponding peptide was judged to be positive when a difference of OD in a 1:100-diluted plasma was more than 0.054.)
- IgG reactive to the peptide in plasma (difference of OD) ([2]; HLA-A2^+ healthy donor #10): — (IgG reactive to a corresponding peptide was judged to be positive when a difference of OD in a 1:100-diluted plasma was more than 0.054.)
- Total (IgG-positive donors / donors tested) ([2]; HLA-A2^+ healthy donors): 3/10
- IgG reactive to the peptide in plasma (difference of OD) ([2]; HLA-A2^+ prostate cancer patient #1): — (IgG reactive to a corresponding peptide was judged to be positive when a difference of OD in a 1:100-diluted plasma was more than 0.054.)
- IgG reactive to the peptide in plasma (difference of OD) ([2]; HLA-A2^+ prostate cancer patient #2): 0.078 OD
- IgG reactive to the peptide in plasma (difference of OD) ([2]; HLA-A2^+ prostate cancer patient #3): — (IgG reactive to a corresponding peptide was judged to be positive when a difference of OD in a 1:100-diluted plasma was more than 0.054.)
- IgG reactive to the peptide in plasma (difference of OD) ([2]; HLA-A2^+ prostate cancer patient #4): — (IgG reactive to a corresponding peptide was judged to be positive when a difference of OD in a 1:100-diluted plasma was more than 0.054.)
- IgG reactive to the peptide in plasma (difference of OD) ([2]; HLA-A2^+ prostate cancer patient #5): — (IgG reactive to a corresponding peptide was judged to be positive when a difference of OD in a 1:100-diluted plasma was more than 0.054.)
- IgG reactive to the peptide in plasma (difference of OD) ([2]; HLA-A2^+ prostate cancer patient #6): 0.0895 OD
- IgG reactive to the peptide in plasma (difference of OD) ([2]; HLA-A2^+ prostate cancer patient #7): 0.0795 OD
- IgG reactive to the peptide in plasma (difference of OD) ([2]; HLA-A2^+ prostate cancer patient #8): — (IgG reactive to a corresponding peptide was judged to be positive when a difference of OD in a 1:100-diluted plasma was more than 0.054.)
- IgG reactive to the peptide in plasma (difference of OD) ([2]; HLA-A2^+ prostate cancer patient #9): — (IgG reactive to a corresponding peptide was judged to be positive when a difference of OD in a 1:100-diluted plasma was more than 0.054.)
- IgG reactive to the peptide in plasma (difference of OD) ([2]; HLA-A2^+ prostate cancer patient #10): — (IgG reactive to a corresponding peptide was judged to be positive when a difference of OD in a 1:100-diluted plasma was more than 0.054.)
- Total (IgG-positive patients / patients tested) ([2]; HLA-A2^+ prostate cancer patients): 3/10
